Legend:
[1] = test system: NAD dependent isocitrate dehydrogenase (ICD); test: NAD dependent isocitrate dehydrogenase activity in detergent extracts; type: biochemical, human; conditions: 0.5% detergent; JEG-3 cell extracts; compared to SDS; relative to Tx-100 (100%)
Protocol: (§1) FIG. 4 is a graphical depiction of the effect of detergent solubilization on enzyme activities. Enzyme activities were determined in the presence of 0.5% Tx-100, SDS, or CTAB as described in the Examples. The activities were expressed relative to that in Tx-100 solubilized samples (100%). […] Alkaline phosphatase and horseradish peroxidase were purchased from Sigma. Ca^2+ -ATPase activity was measured in microsomes prepared from day-17 chick chorioallantoic membrane, Oakley et al., Anal. Biochem., 105:361-363 (1980). NAD dependent isocitrate dehydrogenase (ICD) and lactate dehydrogenase (LDH) activities were measured in detergent extracts of JEG-3 human choriocarcinoma cells
(§2) Ca^2+ -ATPase activity was assayed by the method of Tuan and Knowles, J. Biol. Chem., 259:2754-2763 (1984), without further modification. Alkaline phosphatase, lactate dehydrogenase, and isocitrate dehydrogenase activities were measured using protocols supplied with their respective diagnostic kits.

Alkaline phosphatase = Alkaline phosphatase activity after detergent solubilization; type: biochemical; conditions: 0.5% detergent; compared to SDS; relative to Tx-100 (100%)
Protocol: as §1, §2

horseradish peroxidase = test: Horseradish peroxidase activity after detergent solubilization; type: biochemical; conditions: 0.5% detergent; compared to SDS; relative to Tx-100 (100%)
Protocol: Spectrophotometric Assays. Peroxidase activity was assayed at room temperature using a solution of 0.5 mg/ml diaminobenzidine in 10 mM sodium phosphate buffered 0.9% saline (pH 7.2), containing 0.1% hydrogen peroxide. Reactions were allowed to proceed for 5 minutes, and then were stopped by the addition of 10 mM sodium sulfide to 100 μM. Absorbance at 480 nm was used to determine the degree of product formation.

[2] = test system: lactate dehydrogenase (LDH); test: Lactate dehydrogenase activity in detergent extracts; type: biochemical, human; conditions: 0.5% detergent; JEG-3 cell extracts; relative to Tx-100 (100%)
Protocol: as §1, §2

Ca2+-ATPase = Ca2+-ATPase activity in detergent-solubilized chorioallantoic membrane microsomes; type: biochemical; conditions: 0.5% detergent; day-17 chick CAM microsomes; relative to Tx-100 (100%)
Protocol: as §1, §2

[3] = test system: enzyme activities of various proteins; test: Enzyme activities of detergent-treated samples after heating; type: biochemical; conditions: detergent treated samples heated to 100° C. in the presence of β-mercaptoethanol
Text: Native protein activity was retained after solubilization in CTAB. Enzyme activities of various proteins in CTAB with their activities when solubilized in SDS, or Tx-100 were compared. […] The relative effect of detergent solubilization on native activity varied from protein to protein and, therefore, must be determined empirically.

[4] = α-NH2 group; cited from earlier work

Structure (SMILES) | Enzyme activity (ICD) in detergent [1] | Enzyme activity (AP) in detergent (Alkaline phosphatase) | Enzyme activity (HRP) in detergent (horseradish peroxidase) | Enzyme activity (LDH) in detergent [2] | Enzyme activity (Ca2+-ATPase) in detergent (Ca2+-ATPase) | Enzyme activity after heating [3] | pKa [4]
CCCCCCCCCCCCCCCC[N+](C)(C)C.[Br-] [CTAB, Cetyltrimethylammonium bromide] | relatively high levels of enzyme activity | relatively high levels of enzyme activity | relatively high levels of enzyme activity | lack of activity | significantly affected | lost all activity | 
CCCCCCCCCCCCOS(=O)(=O)[O-].[Na+] [SDS, sodium dodecylsulfate] |  |  |  |  |  | lost all activity | 
NCCCC[C@H](N)C(=O)O [lysine] |  |  |  |  |  |  | ≈ 9.06
